# Source: patent US8114850B2, “Antiproliferative activity of G-rich oligonucleotides and method of using same to bind to nucleolin” (Advanced Cancer Therapeutics, LLC, priority 1999, dated 2012)
# What was measured:
# [1] = tested on: MDA-MB-231 breast cancer cells; test: MTT cell growth assay, MDA-MB-231 cells; assay type: cell-based, human; conditions: for antiproliferative activity, MDA-MB-231: single 10 uM dose, FIG. 7A
# Protocol: Cells were plated at low density ([…] cells per well, depending on cell line) in the appropriate serum-supplemented medium in 96-well plates (one plate per MTT assay time point) and grown under standard conditions of cell culture. The following day (day 1) oligonucleotide, or water as control, was added to the culture medium to give a final concentration of 15 uM. Further oligonucleotide, equivalent to half the initial dose, was added to the culture medium on days two, three and four. Cells were assayed using the MTT assay (Morgan (1998) Methods. Mol. Biol. 79, 179-183) on days one, three, five, seven and nine after plating. The culture medium was not changed throughout the duration of the experiment (which was the time required for untreated cells to grow to confluence). Experiments were performed in triplicate and bars represent the standard error of the data. For the experiment shown in FIG. 7A, MDA-MB-231 breast cancer cells (5×10^2 cells per well) were plated in a 96-well plate. After twenty-four hours, a single dose of oligonucleotide, or equal volume of PBS as a control, was added to the culture medium to a final concentration of 10 uM. Viable cells were assessed seven days after plating using the MTT assay. For the experiment using 3′-unmodified oligonucleotides (FIG. 7D), serum-supplemented medium was replaced by serum-free medium containing oligonucleotide (or serum-free medium alone in control wells). After incubation at 37° C. for four hours, fetal calf serum (Life Technologies, Inc.) was added to the medium to give 10% v/v.
# [2] = target: T1, TEL-binding protein (GRO-binding protein/nucleolin, MDA-MB-231 nuclear extracts) (Homo sapiens, UniProt P19338); test: Competitive EMSA, labeled TEL and MDA-MB-231 nuclear extracts; conditions: for competition with TEL for binding to the nuclear protein: unlabeled competitor, 10-fold molar excess, FIG. 7B
# T1 construct: Nuclear and cytoplasmic extracts from MDA-MB-231 cells were prepared using the protocol described in F. M. Ausubel et al; endogenous in cells; host or cells: MDA-MB-231 nuclear extract, prepared in house
# T1 sequence (P19338 whole entry): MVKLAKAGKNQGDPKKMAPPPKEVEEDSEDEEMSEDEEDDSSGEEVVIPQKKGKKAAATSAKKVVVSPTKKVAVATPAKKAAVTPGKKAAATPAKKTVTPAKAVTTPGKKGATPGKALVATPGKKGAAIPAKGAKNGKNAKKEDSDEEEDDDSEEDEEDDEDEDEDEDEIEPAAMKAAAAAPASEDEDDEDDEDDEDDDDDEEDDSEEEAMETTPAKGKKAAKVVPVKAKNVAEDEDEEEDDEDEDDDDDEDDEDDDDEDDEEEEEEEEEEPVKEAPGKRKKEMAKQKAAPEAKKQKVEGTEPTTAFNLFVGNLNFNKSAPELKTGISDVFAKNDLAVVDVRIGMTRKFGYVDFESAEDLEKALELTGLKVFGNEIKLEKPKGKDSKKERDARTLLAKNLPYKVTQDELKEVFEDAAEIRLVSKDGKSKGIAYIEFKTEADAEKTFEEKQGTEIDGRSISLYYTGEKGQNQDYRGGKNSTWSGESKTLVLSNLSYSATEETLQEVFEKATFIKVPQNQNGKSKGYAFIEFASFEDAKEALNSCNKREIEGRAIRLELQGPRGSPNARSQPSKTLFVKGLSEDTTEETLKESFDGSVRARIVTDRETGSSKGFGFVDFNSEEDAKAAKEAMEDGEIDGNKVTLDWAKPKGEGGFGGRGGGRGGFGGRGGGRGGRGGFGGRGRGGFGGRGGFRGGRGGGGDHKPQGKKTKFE
# [3] = Detection of G-quartets by UV thermal denaturation/renaturation; assay type: physicochemical; conditions: absorbance at 295 nm; for G-quartet formation (UV annealing curve): FIG. 4
# Protocol: Oligonucleotides were resuspended in Tm buffer (20 mM Tris HCl, pH 8.0, 140 mM KCl, 2.5 mM MgCl2) at a concentration such that A260=0.6 (molar concentrations ranged from […]). Samples were annealed by boiling for five minutes and allowing to cool slowly to room temperature and overnight incubation at 4° C. Thermal denaturation/renaturation experiments were carried out using an Amersham Pharmacia Biotech Ultrospec 2000 instrument equipped with a Peltier effect heated cuvette holder and temperature controller (Amersham Pharmacia Biotech). Absorbance at 295 nm was monitored over a temperature range of 25-95 or 20-90° C. at a heating/cooling rate of 0.5° C./min. To investigate the formation of G-quartet structures by the G-rich oligonucleotides, a U.V. melting technique described by […] et al. (1998) FEBS Lett. 435, 74-78 was used. This method relies on the fact that dissociation of G-quartets leads to a decrease in absorbance at 295 nm and is reported to give a more reliable indication of intramolecular G-quartet formation than measurement at 260 nm.
# [4] = target: T2, 106 kDa nuclear protein (p106, GRO-binding protein/nucleolin) (Homo sapiens, UniProt P19338); test: Southwestern blot of HeLa nuclear extracts; conditions: 32P-labeled oligonucleotide, 4° C.; FIG. 6D
# T2 construct: HeLa nuclear extracts used in EMSAs were purchased from Promega Inc. (bandshift grade); host or cells: HeLa nuclear extract (bandshift grade), purchased
# T2 sequence (P19338 whole entry): as above
# Protocol: Nuclear extracts were electrophoresed on a 8% polyacrylamide-SDS gel and transferred to polyvinylidene difluoride (PVDF) membrane by electroblotting using a Tris glycine/methanol (10% v/v) buffer. Immobilized proteins were denatured and renatured by washing for thirty minutes at 4° C. with 6 M guanidine. HCl followed by washes in 1:1, 1:2 and 1:4 dilutions of 6M guanidine in HEPES binding buffer (25 mM HEPES pH 7.9, 4 mM KCl, 3 mM MgCl2). The membrane was blocked by washing for one hour in a 5% solution of non-fat dried milk (NDM) in binding buffer.
# Hybridization of the labeled oligonucleotide (1-4×10^6 cpm) took place for two hours at 4° C. in HEPES binding buffer supplemented with 0.25% NDM, 0.05% Nonidet P […] salmon sperm DNA and […] of an unrelated, mixed sequence 35-mer oligonucleotide (5′-[…] CTTCCTTCCTCTCCA-3′SEQ ID No: 19). Membranes were washed in binding buffer and visualized by autoradiography.
# The molecular weight of the nuclear protein was more accurately determined by Southwestern blotting. HeLa nuclear extracts were electrophoresed on an 8% polyacrylamide-SDS gel and transferred to a PVDF membrane. The membrane was blocked and cut into strips. Each strip was incubated at 4° C. with a 32P-labeled G-rich oligonucleotide in the presence of unrelated unlabeled double stranded and single stranded DNA to block non-specific binding.
# breast cancer cells = test: Summary statements on growth of breast cancer cells / antiproliferative activity; assay type: cell-based; conditions: for antiproliferative activity: cells not given; for modulate the growth of breast cancer cells and/or compete for binding to the G-rich oligonucleotide binding protein (EMSA): and/or statement, FIGS. 6 and 7
# From the text: (§1) By G-rich oligonucleotide (GRO) it is meant that the oligonucleotides consist of 4-100 nucleotides (preferably 10-30 nucleotides) with DNA, RNA, 2′-O-methyl, phosphorothioate or other chemically similar backbones. Their sequences contain one or more GGT motifs. The oligonucleotides have antiproliferative activity against cells and bind to GRO binding protein and/or nucleolin.
# [5] = target: T3, G-rich oligonucleotide binding protein / nucleolin (Homo sapiens, UniProt P19338); test: Protein binding, summary statements (EMSA); conditions: summary statement
# T3 construct: endogenous in cells; MDA-MB-231)
# T3 sequence (P19338 whole entry): as above
# From the text: as §1
# Additionally, the present invention provides a method for selecting oligonucleotides that bind to nucleolin. The method utilizes an electrophoretic mobility shift assay (EMSA), as described below, to screen for oligonucleotides that bind strongly to nucleolin and which, therefore, would be expected, according to the present invention, to have anti-proliferative activity. Oligonucleotides to be screened as potential antiproliferative agents are labeled and then incubated with nuclear extracts in the absence or presence of unlabeled competitor oligonucleotide and are allowed to react. The reaction mixtures are then electrophoresed and mobility shifts and/or bond intensity can be used to identify those oligonucleotides which have bound to the specific protein.
# Alternatively, unlabeled compounds to be screened are incubated with nuclear extracts in the presence of labeled oligonucleotide (for example 5′-TTAGGGTTAGGGTTAGGG TTAGGG) (SEQ ID NO: 20) and binding is assessed by a decrease in the intensity of the shifted band, as in FIG. 6B.
# [6] = target: T4, GRO-binding protein/nucleolin (HeLa nuclear extracts) (Homo sapiens, UniProt P19338); test: UV cross-linking of oligonucleotides to HeLa nuclear extracts; conditions: labeled oligonucleotide with HeLa nuclear extracts; FIG. 6C
# T4 construct: HeLa nuclear extracts used in EMSAs were purchased from Promega Inc. (bandshift grade); host or cells: HeLa nuclear extract (bandshift grade), purchased
# T4 sequence (P19338 whole entry): as above
# Protocol: For the UV crosslinking experiments, samples were incubated as described above (EMSA). They were then placed on ice and irradiated at 5 cm from the source using the “autocross link” function of a Stratagene UV Stratalinker. Following irradiation, samples were electrophoresed under denaturing conditions on a 8% polyacrylamide-SDS gel using a standard Tris glycine buffer and visualized by autoradiography.
# To determine the approximate molecular weight of the protein involved in complex A, and to confirm that competition for this complex results from direct binding of the protein to oligonucleotides, a UV cross-linking study was conducted. 5′-Labeled oligonucleotides and HeLa nuclear extracts were incubated alone or in the presence of unlabeled competitor oligonucleotides.
# The samples were then irradiated with UV light resulting in cross-link formation between protein residues and thymidines in the oligonucleotide. The protein was thus radiolabeled and could be detected on a SDS-polyacrylamide gel.
# [7] = tested on: MDA-MB-231 breast cancer cells; test: Chemotherapeutic agent and GRO combination, MTT assay; assay type: cell-based, human; conditions: cisplatin 0.5 µg/ml, GR029A 8 uM added after two hours, MTT after six days
# Protocol: Cisplatin (in 1% DMSO solution to give a final concentration of […]) was added to the medium of MDA-MB-231 breast cancer cells growing in culture. After two hours, GR029A (in PBS solution to give a final concentration of 8 uM) was added to the medium. After six days, the relative number of viable cells was determined using the MTT assay. Cells treated with GR029A alone received an appropriate volume of 1% DMSO in place of cisplatin. Cells treated with cisplatin alone received an appropriate volume of PBS in place of GR029A.
Compound,"antiproliferative activity, MDA-MB-231 [1]",antiproliferative activity (breast cancer cells),protein binding [5],modulate the growth of breast cancer cells and/or compete for binding to the G-rich oligonucleotide binding protein (EMSA) (breast cancer cells),further results
"5′-GTTGTTTGGGGTGG-3′ (DNA, backbone not given here; further chemistry not fully specified) [GRO14A]",moderate antiproliferative activity,–,–,–,competition with TEL for binding to the nuclear protein [2]: able to compete
"GRO15B: inactive G-rich oligonucleotide, SEQ ID NO: 22 (TTGGGGGGGGTGGGT; DNA, backbone not given here; further chemistry not fully specified)",inactive,–,–,–,G-quartet formation (UV annealing curve) [3]: no transition characteristic of intramolecular G-quartet formation; hybridization to protein band at 106 kDa (Southwestern blot) [4]: hybridized only weakly
"5′-GGTGGTGGTGGTTGT GGTGGTGGTGGTTT-3′ (GGTGGTGGTGGTTGTGGTGGTGGTGGTTT; DNA, backbone not given here; further chemistry not fully specified) [GR029-6]",–,demonstrated antiproliferative activity,protein binding,–,–
"5′-TTAGGGTTAGGGTTAGGGTTAGGG [TEL, reference compound]",–,–,–,–,"UV cross-linked protein complex (approximately 100 kDa) [6]: crosslinked to a protein; G-quartet formation (UV annealing curve) [3]: clear transition; melting temperature of G-quartet transition ([3]; Tm buffer pH 8.0, 140 mM KCl, 0.5° C./min): 66 °C; growth of MDA-MB-231 cells, unmodified oligonucleotides ([1]; 10 uM in serum-free medium 4 h, then 10% fetal calf serum, day 7, FIG. 7D): modulated the growth of cells; competition for protein binding in competitive EMSA ([2]; 10 nM unlabeled oligonucleotide, […]): competed strongly"
"5′-TTTGGTGGTGGTGGTTGTGG TGGTGGTG-3′ (TTTGGTGGTGGTGGTTGTGGTGGTGGTG; DNA, backbone not given here; further chemistry not fully specified) [GR028A]",moderate antiproliferative activity,–,–,–,competition with TEL for binding to the nuclear protein [2]: able to compete
"5′-TTTGGTGGTGGTGGTTTGGGTGGTGG TGG-3′ (TTTGGTGGTGGTGGTTTGGGTGGTGGTGG; aptamer; DNA, backbone not given here; further chemistry not fully specified) [GR029-5]",–,demonstrated antiproliferative activity,protein binding,have been shown to modulate the growth of breast cancer cells and/or to compete for binding,–
heparin [reference compound],–,–,–,–,"growth of MDA-MB-231 cells, heparin ([1]; 20 units/ml (approximately 0.12 mg/ml), FIG. 7C): no effect on cell growth; competition for protein binding in competitive EMSA, heparin ([2]; 0.02 units/ml (approximately 0.12 ug/ml)): No competition"
"5′-TTTGGTGGTGGTGGTGGTGGTGGTGGTGG-3′ (aptamer; DNA, backbone not given here; further chemistry not fully specified) [GR029-3]",–,demonstrated antiproliferative activity,protein binding,have been shown to modulate the growth of breast cancer cells and/or to compete for binding,–
"5′-TTTGGTGG TGGTGGTTTTGGTGGTGGTGG-3′ (TTTGGTGGTGGTGGTTTTGGTGGTGGTGG; aptamer; DNA, backbone not given here; further chemistry not fully specified) [GR029-2]",–,demonstrated antiproliferative activity,protein binding,have been shown to modulate the growth of breast cancer cells and/or to compete for binding,–
"5′-GGTTGGGGTGGGTGGGGTG GGTGGG-3′ (GGTTGGGGTGGGTGGGGTGGGTGGG; DNA, backbone not given here; further chemistry not fully specified) [GR025A]",moderate antiproliferative activity,–,–,–,competition with TEL for binding to the nuclear protein [2]: able to compete
"5′-TTTGGTGGTGGT GGTGTGGTGGTGGTGG-3′ (TTTGGTGGTGGTGGTGTGGTGGTGGTGG; DNA, backbone not given here; further chemistry not fully specified) [GR028B]",–,demonstrated antiproliferative activity,protein binding,–,–
"N.N.[Cl][Pt][Cl] [cis-platin, reference compound]",–,–,–,–,growth modulation [7]: 29%
"5′-TGGTGGTGGTGGT-3′ (DNA, backbone not given here; further chemistry not fully specified) [GR029-13]",–,–,–,have been shown to modulate the growth of breast cancer cells and/or to compete for binding,–
